Source: ChEMBL document CHEMBL1158254, “HIV inhibitory natural products. 26. Quinoline alkaloids from Euodia roxburghiana” (J Nat Prod, 1996)
The source made the active and inactive calls. The calls are words filed in the database; no cut-off is given here.

Legend:
[1] = tested on: Human immunodeficiency virus 1; test: Antiviral activity against HIV1 infected in CEM-SS cells assessed as virus-induced cytopathic effect by XTT assay; type: functional, organism-based; conditions: for IC50: Human immunodeficiency virus 1, CEM-SS
[2] = biological target: Human immunodeficiency virus type 1 reverse transcriptase (Human immunodeficiency virus 1, UniProt Q72547); test: Inhibition of HIV1 reverse transcriptase

Compound | IC50 [1] [µM] | IC50 [2] [µM] | Activity [1]
CC(C)=CCOc1c(CC=C(C)C)c(O)nc2ccccc12 | 26.9 | 8 | 
C=CC(C)(C)C1(CC=C(C)C)C(=O)Nc2ccccc2C1=O (configuration not stated) [BUCHAPINE] | 29 | 12 | 
COC(=O)/C(C)=C/COc1ccc2c(OC)c3ccoc3nc2c1 |  |  | inactive
COC(=O)[C@@H](C)CCOc1ccc2c(OC)c3ccoc3nc2c1 |  |  | inactive
COc1c2ccc(OCC[C@H](C)O)cc2nc2occc12 |  |  | inactive
